Experiments:
FRAP1 = experiment: Phospho-Akt1 (Ser473) cellular assay; format: cell-based, human; conditions: Hek 293 cells; for dose response in the phospho-Akt1 (Ser473) assay: FIG. 5; for IC50 through the FRAP1 pathway compared with the PDPK1 pathway: anti-phospho Akt1 (Ser473) versus anti-phospho Akt (Thr308) assays
Protocol: (§1) In this cellular assay, compounds were tested for their ability to inhibit Braf, by measuring the phosphorylation of Mek1, a direct kinase substrate of Braf. A375 cells expressing the constitutively active Braf V600E mutation were plated at a density of 3e5 cells/mL in a 10 cm plate and transfected with expression plasmid encoding detectable protein (16 μg) in 1 mL OPTI-MEM buffer (GIBCO/Invitrogen) with 40 μL Lipofectamine 2000 (Invitrogen) and incubated at 37° C. for 18-22 h. On the following day, media was removed and cells washed with PBS, trypsinized then quenched with M3 media (DMEM containing 10% FBS). Cells were counted and resuspended in M3 complete media to a density of […] and then plated at 50,000 cells/well/100 μL into a 96-well plate and incubated at 37° C. for 3h. Media was then removed and starvation media (0.5% FBS/DMEM) was added to the wells and allowed to incubate overnight. On the following day, the cells were incubated with compound in M3 starvation media and incubated at 37° C. for 2 hours.
The cells were centrifuged at 3000 rpm for 20 minutes. […] Lysate dilution was carried out in two steps. The 96-well plate containing 10 μL extract aliquot was thawed at room temp, and 40 microliters of a solution of 0.1% BSA /1× PBS 0.05% Tween with 2 nM nucleic acid tag serving as the NF-κB probe was added, and mixed by orbital shaking at 450 rpm at room temp for 10 min. Then 270 microliters of a solution of 20 microgram per mL sheared salmon sperm DNA in 0.1% BSA/1× PBS 0.05was added, and mixed gently by pipetting up and down.
On the following day, beads were pelleted then washed/blocked and resuspended in 1-2×2% BSA/PBST and plated out onto a 96-well polypropylene plate at half the original stock concentration. The phospho-MEK1 binding assay was carried out on a separate plate containing 25 μL of beads and 100 μL 2% BSA/PBST which was shaken until the addition of cell lysate. For the binding assay, beads were first pelleted and the buffer aspirated, and then 100 μL of diluted lysate was added to each well and the plate was shaken at room temperature for one hour. After the binding step, the beads were pelleted for 4 minutes, the buffer aspirated and 150 μL of PBST was added. The plate was briefly shaken and then pelleted over a magnet and then washed two to four times with wash buffer (1× PBS/0.05% Tween 20) to remove unbound proteins. After the final wash, the beads were resuspended in 150 μL of IgG elution buffer (Pierce Cat No. 21004) supplemented with Tween 20 to 0.05% and incubated at room temperature with shaking for 60 minutes. After pelleting the beads, 50 μL of the eluted mixture was removed, and added to 30 μL of 200 mM Tris base, mixed well, and then transferred to the DNA detection assay. For qPCR, 2.5 μL was transferred to 7.5 μL of mastermix with appropriate primers and probes (Applied Biosystems).
As shown in the diagram in FIG. 2, the PIK3CA kinase mediates signaling through two separate pathways, e.g., by direct activation of the kinase substrates FRAP1 (the kinase domain of mTOR), or other less-studied kinases known as “PDK2” in the literature and PDPK1, both of which in turn phosphorylate Akt. […] Therefore, using this cellular assay, compounds were interrogated for their inhibitory mechanism not only against PIK3CA but also against FRAP1 or PDPK1, by measuring site-specific phosphorylation of Akt. […] A binding assay using anti-total Akt1 antibody was also run in parallel to normalize the amount of measured phospho-Akt1 across wells.

PDPK1 = experiment: Phospho-Akt1 (Thr308) cellular assay; format: cell-based, human; conditions: Hek 293 cells, FIG. 6
Protocol: as §1, with “On the following day, the cells were incubated with compound in M3 starvation media and incubated at 37° C. for 2 hours.” left out
As shown in the diagram in FIG. 2, the PIK3CA kinase mediates signaling through two separate pathways, e.g., by direct activation of the kinase substrates FRAP1 (the kinase domain of mTOR), or other less-studied kinases known as “PDK2” in the literature and PDPK1, both of which in turn phosphorylate Akt. […] A binding assay using anti-total Akt1 antibody was also run in parallel to normalize the amount of measured phospho-Akt1 across wells.

SMILES | IC50 through the FRAP1 pathway compared with the PDPK1 pathway (FRAP1) | dose response in the phospho-Akt1 (Ser473) assay (FRAP1) | inhibition of Thr308 phosphorylation of Akt (PDPK1)
O=C(NCCCNc1nc(Nc2cccc(NC(=O)N3CCCC3)c2)ncc1I)c1cccs1 [BX-795] | selectively inhibiting PDPK1 over FRAP1 | insensitive | –
Nc1nc(N)c2nc(-c3cccc(O)c3)c(-c3cccc(O)c3)nc2n1 [TG-100-115] | – | insensitive | –
C[C@@H]1C[C@H]2O[C@@H]2/C=C\C=C\C(=O)Cc2c(Cl)c(O)cc(O)c2C(=O)O1 [radicicol] | – | partially sensitive | could only partially inhibit Thr308 phosphorylation

Continued, in another order:

IC50 through the FRAP1 pathway compared with the PDPK1 pathway (FRAP1) | SMILES | dose response in the phospho-Akt1 (Ser473) assay (FRAP1) | inhibition of Thr308 phosphorylation of Akt (PDPK1)
nearly equipotent IC50 | Oc1cccc(-c2nc(N3CCOCC3)c3oc4ncccc4c3n2)c1 [PI103] | – | –
nearly equipotent IC50s | FC(F)c1nc2ccccc2n1-c1nc(N2CCOCC2)nc(N2CCOCC2)n1 [ZSTK-474] | – | –
